For orientation: Inhibition means the percentage by which the read-out fell short of the control.

The first experiment concerns the target T1, human renal renin (Homo sapiens, UniProt P00797).
T1 construct: human renal renin, free from acid proteolytic activity; from tissue
T1 sequence (P00797 67-406): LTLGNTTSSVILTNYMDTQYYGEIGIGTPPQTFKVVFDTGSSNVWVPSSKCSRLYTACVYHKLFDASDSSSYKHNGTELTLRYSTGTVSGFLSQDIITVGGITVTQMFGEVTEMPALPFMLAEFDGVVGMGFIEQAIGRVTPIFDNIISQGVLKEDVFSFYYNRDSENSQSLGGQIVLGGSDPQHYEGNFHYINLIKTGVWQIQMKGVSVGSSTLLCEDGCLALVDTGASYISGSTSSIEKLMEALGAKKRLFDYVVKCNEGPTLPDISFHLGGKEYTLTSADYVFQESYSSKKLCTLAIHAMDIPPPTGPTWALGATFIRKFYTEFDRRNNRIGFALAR
In words: In vitro inhibition of human renal renin; angiotensin I formed measured by radioimmunoassay. In kind it is biochemical. The note with it: @ 10^-5; human renin substrate (angiotensinogen), 37° C., pH 6.0. On the procedure:
At the end of the incubation, the amount of angiotensin I formed is measured by radioimmunoassay and the percent inhibition or renin is calculated.
`CC(C)CC(NC(=O)C(C)NC(=O)C(Cc1ccccc1)NC(=O)OC(C)(C)C)C(O)CSc1ccccc1` (stereo not drawn) [Example 25, Boc-Phe-Ala amide of 3-amino-2-hydroxy-5-methyl-1 phenylmercaptohexane] came in with an Inhibition of 56%.

`CC(C)CC(NC(=O)C(C)NC(=O)C(Cc1ccccc1)NC(=O)OC(C)(C)C)C(O)CSCc1ccccc1` (stereo not drawn) [Example 28, Boc-Phe-Ala amide of 3 amino 1-benzylmercapto-2 hydroxy-5-methylhexane] showed an Inhibition of 57%. Still for that read-out and setting: as for `CC(C)CC(NC(=O)C(C)NC(=O)C(Cc1ccccc1)NC(=O)OC(C)(C)C)C(O)CSC1CCCCC1` (stereo not drawn) [Example 29, Boc-Phe-Ala amide of 3-amino-1-cyclohexyl mercapto-2-hydroxy-5-methylhexane], the figure is 94%. Same read-out and setting: to `CC(C)CC(NC(=O)C(C)NC(=O)C(Cc1ccccc1)NC(=O)OC(C)(C)C)C(O)CNc1ccccc1` (stereo not drawn) [Example 31, Boc-Phe-Ala amide of 3-amino-2-hydroxy-5-methyl-1-phenylaminohexane] belongs 31%. Still for that read-out and setting: to `CC(C)CC(NC(=O)C(C)NC(=O)C(Cc1ccccc1)NC(=O)OC(C)(C)C)C(O)C[S+]([O-])C1CCCCC1` (stereo not drawn) [Example 55, Boc-Phe Ala amide of 3-amino-1-cyclohexyl sulfinyl-2-hydroxy-5-methylhexane] belongs 46%.

Staying with this experiment, now noted: @ 10^-6; human renin substrate (angiotensinogen), 37° C., pH 6.0.
Molecule `CC(C)CC(NC(=O)C(Cc1cnc[nH]1)NC(=O)C(Cc1ccccc1)NC(=O)OC(C)(C)C)C(O)CSc1ccccc1` (stereo not drawn) [Example 23, Boc-Phe-His amide of 3-amino-2 hydroxy-5-methyl 1-phenylmercaptohexane] yielded an Inhibition of 56%. In the case of `CC(C)CC(=O)NCC(O)C(CC(C)C)NC(=O)C(Cc1cnc[nH]1)NC(=O)C(Cc1ccccc1)NC(=O)OC(C)(C)C` (stereo not drawn) [Example 79, Boc-Phe-His Amide of 3-Amino-2- hydroxy-1-(isovalerylamino)-5-methylhexane], the Inhibition was determined as 63%.

The same experiment, now with this note: @ 10^-7; human renin substrate (angiotensinogen), 37° C., pH 6.0.
In turn, `CC(C)(C)OC(=O)NC(Cc1ccccc1)C(=O)NC(Cc1cnc[nH]1)C(=O)NC(Cc1ccccc1)C(O)CSC1CCCCC1` (stereo not drawn) [Example 50, Boc-Phe-His amide of 3-amino-1-cyclohexylmercapto-2-hydroxy-4-phenylbutane] displayed an Inhibition of 89%. On the same count and under the same terms, to `O=C(NC(Cc1cnc[nH]1)C(=O)NC(CC1CCCCC1)C(O)CSC1CCCCC1)C(Cc1ccccc1)Cc1ccccc1` (stereo not drawn) [Example 81, Dba-His Amide of 3-amino-4-cyclohexyl-1-cyclohexylmercapto-2-hydroxybutane] belongs 71%.

The experiment is the same for the next values; noted with them: @ 10^-8; human renin substrate (angiotensinogen), 37° C., pH 6.0.
With `CC(C)SCC(O)C(CC1CCCCC1)NC(=O)C(Cc1cnc[nH]1)NC(=O)C(Cc1ccccc1)NC(=O)OC(C)(C)C` (stereo not drawn) [Example 51, Boc-Phe-His amide of 3 amino-4-cyclohexyl-2-hydroxy-1-isopropylmercaptobutane], the Inhibition worked out at 80%. `CC(C)(C)OC(=O)NC(Cc1ccccc1)C(=O)NC(Cc1cnc[nH]1)C(=O)NC(CC1CCCCC1)C(O)CS(=O)(=O)C1CCCCC1` (stereo not drawn) [Example 54, Boc-Phe-His amide of 3 amino-4-cyclohexyl-1-cyclohexylsulfonyl-2-hydroxybutane]: the Inhibition was found to be 81%. As for `CC(C)(C)CC(=O)NC(Cc1ccccc1)C(=O)NC(Cc1c[nH]cn1)C(=O)NC(CC1CCCCC1)C(O)CSC1CCCCC1` (stereo not drawn) [Example 82, Tba-Phe-His-Amide of 3-amino-4-cyclohexyl-1-cyclohexylmercapto-2-hydroxybutane], the Inhibition was 82%.

Values taken from patent US4826815A, “Renin inhibiting compounds” (Abbott Laboratories, priority 1987, dated 1989).
